The target of one test is T1, S100A4 (Homo sapiens, UniProt P26447).
T1 construct: human S100A4 (R&D Systems)
Put plainly: SPR direct binding to amine-coupled S100A4; SPR inhibition of S100A4 binding to immobilized RAGE (IC50 […], Figure 5C).

The target of another test is T2, S100A9 (Homo sapiens, UniProt P06702).
T2 construct: recombinant human S100A9 (produced in E. coli)
T2 sequence (P06702 1-114): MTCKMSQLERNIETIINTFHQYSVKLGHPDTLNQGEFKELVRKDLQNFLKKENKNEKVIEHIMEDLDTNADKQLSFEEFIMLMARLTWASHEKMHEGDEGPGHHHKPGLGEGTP
Kind of test: SPR direct binding to amine-coupled S100A9; SPR inhibition of S100A9 binding to immobilized RAGE (IC50 […]) and TLR4 ([…]).

T1 sequence (P26447 2-101): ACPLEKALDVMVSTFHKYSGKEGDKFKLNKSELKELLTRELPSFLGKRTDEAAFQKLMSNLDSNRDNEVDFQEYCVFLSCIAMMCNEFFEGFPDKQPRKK

A word on the IC50: it is the concentration needed to halve the response being measured. Low values mean greater potency in that assay, high ones weaker potency in that assay. For `O=C(Nc1cc(Cl)cc(Cl)c1O)c1c(O)c(Cl)cc(Cl)c1Cl` [OX, Oxyclozanide], the IC50 on S100A4 is 52 µM; at S100A9, about 1.3 µM.

Values taken from PMC3648463, “Common Interactions between S100A4 and S100A9 Defined by a Novel Chemical Probe” (PLoS ONE, 2013).
